Source: US9393192B2, “Methods and dosage forms for controlled delivery of paliperidone and risperidone” (ALZA CORPORATION, priority 2002, dated 2016)

Columns and labels:
[1] = cited from earlier work
[2] = in vivo; cited from earlier work
[3] = stability testing / degradation of paliperidone; assay type: physicochemical; settings: stress conditions, stability testing (FIGS. 7, 8, 9A, 9B)
From the text: FIGS. 8, 9A and 9B illustrate the increased stability of paliperidone in the dosage forms incorporating the protective subcoat compared to dosage forms not incorporating the protective subcoat.

Compound: Cc1nc2n(c(=O)c1CCN1CCC(c3noc4cc(F)ccc34)CC1)CCCC2O (stereo not shown) [paliperidone]
- solubility in water [1]: practically insoluble in water
- half-life [2]: about one
- degradation / stability [3]: degrades into notable amounts of impurities

Compound: Cc1nc2n(c(=O)c1CCN1CCC(c3noc4cc(F)ccc34)CC1)CCCC2 [risperidone]
- solubility in water [1]: practically insoluble in water
